One assay addresses T1, hM4 (Homo sapiens, UniProt P08173).
T1 sequence (P08173 1-479): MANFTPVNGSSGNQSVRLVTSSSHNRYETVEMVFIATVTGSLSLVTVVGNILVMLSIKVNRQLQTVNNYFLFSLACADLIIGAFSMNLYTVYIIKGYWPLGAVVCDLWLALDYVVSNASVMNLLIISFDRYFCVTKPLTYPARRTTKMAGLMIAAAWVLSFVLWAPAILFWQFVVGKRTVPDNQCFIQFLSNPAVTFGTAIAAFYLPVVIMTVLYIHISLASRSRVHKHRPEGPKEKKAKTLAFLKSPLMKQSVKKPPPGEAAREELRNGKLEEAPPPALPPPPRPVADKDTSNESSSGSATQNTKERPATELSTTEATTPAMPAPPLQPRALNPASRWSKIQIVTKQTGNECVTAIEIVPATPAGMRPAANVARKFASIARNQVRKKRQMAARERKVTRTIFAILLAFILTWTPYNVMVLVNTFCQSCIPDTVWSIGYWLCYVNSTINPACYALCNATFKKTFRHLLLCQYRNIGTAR
The assay can be described thus: Competitive [3H]NMS radioligand binding, CHO-K1 membranes expressing hM4. To be noted: [3H]NMS, CHO-hM4 cell membrane preparations; read-out: Affinity: Ki ± SD hM4. The source says:
(§1) The arecaidine esters’ affinities towards the human mAChR subtypes hM1–hM5 were studied in a competitive radioligand binding assay using CHO-K1 cell membrane homogenates expressing a single mAChR subtype and tritiated N-methyl scopolamine methyl chloride ([^3H]NMS). To speed up our affinity testing regime, we subjected all test substances to preliminary single-concentration displacement assays, as described previously. Compounds with percent displacements below 75% at any of the subtypes were dropped from further investigations (Table S1). For compounds meeting the percent displacement threshold (8c, 10b, 10c, 17b, 18b, and 25), inhibition constants (Ki) were assessed in dose-dependent displacement experiments (Table 2).
(§2) Cell membranes bearing hM1-hM5 receptors were prepared as described previously. Briefly, stably transfected CHO-K1 cells were grown to at least 80% confluency in T175 flasks, washed with ice-cold DPBS, and scraped into a mixture of ice-cold 2 mL 10 mM Tris-HCl, 1 mM EDTA-buffer, pH 7.4 and 200 µL protease inhibitor. A cell homogenate was prepared by passing the cell suspension through a G29 needle. The cell homogenates corresponding to two T175 flasks were combined and subsequently centrifuged (10 min, 1000× g, 4 °C). Ultracentrifugation of the supernatant (1 h, 100,000× g, 4 °C) yielded a membrane pellet, which was suspended in 250 µL 50 mM Tris-HCl buffer, pH 7.4 and stored at −80 °C.
(§3) Then, 5 µL of test compound in DMSO, 50 µL of [^3H]NMS in assay buffer, and 445 µL of membrane suspension in assay buffer were incubated for 90 min at 23 °C in PP tubes. Maximum binding was measured by using 5 µL DMSO, and nonspecific binding was measured by using 5 µL of 1 µM scopolamine in DMSO. The effective concentration of [^3H]NMS was 0.2 nM, 0.3 nM, 0.8 nM, 0.2 nM, and 1 nM for M1–M5 and 4–30 µg membrane were used per tube. The membrane-bound radioactivity was recovered by filtration through Whatman™ GF/B glass fiber filters presoaked in aqueous 0.1% PEI using an M-36 tygon tubed cell harvester (Brandel®, Gaithersburg, MD, USA). Membranes were washed three times with ice-cold washing buffer (50 mM Tris, pH 7.4) before being dried, transferred to 2 mL scintillation cocktail (UltimaGold™, high flashpoint LSC cocktail, PerkinElmer, Waltham, MA, USA) and counted in a β-counter (Hidex TDCR liquid scintillation counter in CPM mode). IC50 values were calculated by a variable slope logistic regression using at least five distinct concentrations of test compounds, pipetted in triplicates.

The target in a further assay is T2, hM1 (Homo sapiens, UniProt P11229).
T2 sequence (P11229 1-460): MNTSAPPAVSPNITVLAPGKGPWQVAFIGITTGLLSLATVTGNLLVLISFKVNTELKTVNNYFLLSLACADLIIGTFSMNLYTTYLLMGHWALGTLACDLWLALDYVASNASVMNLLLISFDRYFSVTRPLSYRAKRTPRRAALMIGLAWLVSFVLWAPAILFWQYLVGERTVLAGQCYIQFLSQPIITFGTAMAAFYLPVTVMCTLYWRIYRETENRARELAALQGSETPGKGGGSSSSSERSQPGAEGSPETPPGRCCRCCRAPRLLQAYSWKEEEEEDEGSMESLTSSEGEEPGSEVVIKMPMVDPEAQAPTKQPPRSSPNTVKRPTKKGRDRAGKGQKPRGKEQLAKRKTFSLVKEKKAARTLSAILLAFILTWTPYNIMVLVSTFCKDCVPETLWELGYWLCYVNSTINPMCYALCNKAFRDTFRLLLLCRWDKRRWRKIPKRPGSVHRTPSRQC
Put plainly: Competitive [3H]NMS radioligand binding, CHO-K1 membranes expressing hM1. To be noted: for Ki: [3H]NMS, CHO-hM1 cell membrane preparations, read-out: Affinity: Ki ± SD hM1; for x-Fold Selectivity for hM1 vs. hM2: ratio of the Ki values hM2/hM1; for x-Fold Selectivity for hM1 vs. hM3: ratio of the Ki values hM3/hM1; for x-Fold Selectivity for hM1 vs. hM4: ratio of the Ki values hM4/hM1; for x-Fold Selectivity for hM1 vs. hM5: ratio of the Ki values hM5/hM1.
From the text: as §1, §2, §3

Bounds are passed on as bounds.

In general, Ki refers to the dissociation constant of the complex between target and ligand, obtained from inhibition or displacement. As to `CN1CCC=C(C(=O)OCc2ccc(CO)cc2)C1` [Compound 8c, 4-(hydroxymethyl)benzyl 1-methyl-1,2,5,6-tetrahydropyridine-3-carboxylate], the inhibition constant Ki at hM4 was determined as 0.697 ± 0.132 µM. Further, at hM1, the inhibition constant Ki came to 0.525 ± 0.036 µM, the “x-Fold Selectivity for hM1 vs. hM2” value is given as above 1.9 x-fold, the “x-Fold Selectivity for hM1 vs. hM3” value is recorded as 1.3 x-fold and the “x-Fold Selectivity for hM1 vs. hM4” value was 1.3 x-fold. Besides, the “x-Fold Selectivity for hM1 vs. hM5” value on hM1 came to 0.8 x-fold.

For `CN1CCC=C(C(=O)OC(c2ccccc2)c2cccc(O)c2)C1` (stereo not shown) [Compound 17b, (3-hydroxyphenyl)(phenyl)methyl 1-methyl-1,2,5,6-tetrahydropyridine-3-carboxylate], on hM4, the inhibition constant Ki was found to be 0.0184 ± 0.0058 µM. Moreover, at hM1, the inhibition constant (Ki) was found to be 0.0055 ± 0.0005 µM, the “x-Fold Selectivity for hM1 vs. hM3” value came to 3.7 x-fold, the “x-Fold Selectivity for hM1 vs. hM4” value turned out to be 3.3 x-fold and the “x-Fold Selectivity for hM1 vs. hM5” value stood at 2.0 x-fold.

`CN1CCC=C(C(=O)OC(c2ccccc2)c2ccc(CO)cc2)C1` (stereo not shown) [Compound 10c, (4-(hydroxymethyl)phenyl)(phenyl)methyl 1-methyl-1,2,5,6-tetrahydropyridine-3-carboxylate]: the Ki on hM4 was determined as 0.093 ± 0.023 µM. On hM1, the inhibition constant Ki was 0.074 ± 0.0032 µM, the “x-Fold Selectivity for hM1 vs. hM2” value came to 13.2 x-fold, the “x-Fold Selectivity for hM1 vs. hM3” value stood at 2.0 x-fold and the “x-Fold Selectivity for hM1 vs. hM4” value amounted to 1.3 x-fold. The “x-Fold Selectivity for hM1 vs. hM5” value on hM1 came out at 1.0 x-fold.

Consider `CN1CCC=C(C(=O)OCc2cccc(O)c2)C1` [Compound 18b, 3-hydroxybenzyl 1-methyl-1,2,5,6-tetrahydropyridine-3-carboxylate], for which the Ki on hM4 amounted to 0.634 ± 0.09 µM. At hM1, the Ki worked out at 0.259 ± 0.075 µM, the “x-Fold Selectivity for hM1 vs. hM3” value worked out at 0.7 x-fold, the “x-Fold Selectivity for hM1 vs. hM4” value is on record as 2.4 x-fold and the “x-Fold Selectivity for hM1 vs. hM5” value is 0.35 x-fold.

Take `CN1CCC=C(C(=O)OCC(O)(c2ccccc2)c2ccccc2)C1` [Compound 25, 2-hydroxy-2,2-diphenylethyl 1-methyl-1,2,5,6-tetrahydropyridine-3-carboxylate]: the inhibition constant (Ki) on hM4 is 0.217 ± 0.023 µM. Also, on hM1, the inhibitory constant (Ki) was found to be 0.231 ± 0.06 µM, the “x-Fold Selectivity for hM1 vs. hM2” value is given as above 4.3 x-fold, the “x-Fold Selectivity for hM1 vs. hM3” value was 1.2 x-fold and the “x-Fold Selectivity for hM1 vs. hM4” value was 0.9 x-fold. For the same compound, at hM1, the “x-Fold Selectivity for hM1 vs. hM5” value was found to be 1.2 x-fold.

For the origin of these results see article PMC9145622, “Synthesis, Biological Evaluation, and Docking Studies of Antagonistic Hydroxylated Arecaidine Esters Targeting mAChRs” (Molecules, 2022).
